Experimental data taken from article PMC9026082, “Madecassic Acid—A New Scaffold for Highly Cytotoxic Agents” (International Journal of Molecular Sciences, 2022).

What was measured:
[1] = system: HT29 (colorectal carcinoma); assay: SRB cytotoxicity assay, HT29; format: cell-based, human; details: cut-off 30 μM
Description: (§1) To assess their cytotoxicity parent, triterpenoic acids 1–3, their acetates 4–6, the amides 7–18, as well as the respective rhodamine B conjugates 19–24 were subjected to SRB assays employing several human tumor cell lines (A375, HT29, MCF-7, A2780, and HeLa) as well as non-malignant fibroblasts (NIH 3T3).
(§2) A detailed description of materials and methods can be found in the Supplementary Materials File. For biological screening, the cell lines were obtained from ATCC: A375 (CRL-1619), HT29 (HTB-38), MCF7 (HTP-22), A2780 (HTP-77), HeLa (CCL-2), and NIH 3T3 (CRL-1573) ^13C NMR spectra (Supplementary Materials) were recorded as APT spectra showing CH and CH3 groups as positive signals and CH2 groups and quaternary carbons as negative signals. […]
(§3) 2. Cytotoxicity assay (SRB assay)
(§4) The cell lines were obtained from Department of oncology (Martin-Luther-University Halle Wittenberg). Cultures were maintained as monolayers in RPMI 1640 medium with L-glutamine (Capricorn Scientific GmbH, Ebsdorfergrund, Germany) supplemented with 10% heat inactivated fetal bovine serum (Sigma -Aldrich Chemie GmbH, Steinheim, Germany) and penicillin/streptomycin (1%, Capricorn Scientific GmbH, Ebsdorfergrund, Germany) at 37 °C in a humidified atmosphere with 5% CO 2.
(§5) The cytotoxicity of the compounds was eva luated using the sulforhodamine -B (Kiton-Red S, ABCR) micro culture colorimetric assay using […] in 96 -well plates with the seeding of the cells on day 0 applying appropriate cell densities to prevent confluence of the cells during the period of the experiment. On day 1, the cells were treated with six di fferent concentrations (1, 3, 7, 12, 20 and 30 μM); thereby, the final concentration of DMSO was always < 0.5%, generally regarded as non-toxic to the cells. On day 4, the supernatant medium was discarded; the cells were fixed with 10 % trichloroacetic acid. After another day at 4 °C, the cells were washed in a strip washer and dyed with the SRB solution (100 μL, 0.4% in 1% acetic acid) for about 20 min to be followed by washing of the plates (four times, 1% acetic acid) and air -drying […]
(§6) overnight. Furthermore, tris base solution (200 μL, 10 mM) was added to each well and absorbance was measured at λ = 570 nm employing a reader (96 wells, Tecan Spectra, Crailsheim, Germany). The EC50 values were averaged from three independent experiments performed each in triplicate calculated from semi logarithmic dose response curves applying a non-linear four-parameter Hills-slope equation (GraphPad Prism5; variables top and bottom were set to 100 and 0, respectively).

[2] = system: NIH 3T3 (non-malignant fibroblasts); assay: SRB cytotoxicity assay, NIH 3T3; format: cell-based; details: cut-off 30 μM
Description: as §1, §2, §3, §4, §5, §6

[3] = system: A2780 (ovarian carcinoma); assay: SRB cytotoxicity assay, A2780; format: cell-based, human; details: for EC50: SRB assay, 72 h of treatment, cut-off 30 μM
Description: as §1, §2, §3, §4, §5, §6

[4] = system: MCF7 (breast adenocarcinoma); assay: SRB cytotoxicity assay, MCF7; format: cell-based, human; details: cut-off 30 μM
Description: as §1, §2, §3, §4, §5, §6

[5] = system: several human tumor cell lines (A375, HT29, MCF-7, A2780, and HeLa); assay: SRB assays, cell line not given; format: cell-based; details: cell line not stated; for EC50: Homo sapiens, SRB assays, lowest value of the series, read-out: EC50 values as low as (analogs of madecassic acid)
Description: as §1, with “3T3). […]” for “3T3).”
as §3, §4, §5, §6

[6] = system: A375 (melanoma); assay: SRB cytotoxicity assay, A375; format: cell-based, human; details: 72 h of treatment, cut-off 30 μM
Description: as §1, §2, §3, §4, §5, §6

[7] = system: HeLa (cervical carcinoma); assay: SRB cytotoxicity assay, HeLa; format: cell-based, human; details: 72 h of treatment, cut-off 30 μM
Description: as §1, §2, §3, §4, §5, §6

[8] = system: A375 cells; assay: Staining experiments (acridine orange, rhodamine 123, Hoechst 33,342); format: cell-based, human; details: 48 h, same area as rhodamine 123, not in nucleus (Hoechst 33,342)
Method: The mode of action—as previously shown for several triterpene-rhodamine B conjugates—is to act as mitocans. […] Thereby, Hoechst 33,342 binds selectively to DNA while rhodamine 123 is usually applied for dying mitochondria.
Figure 1 Staining experiments: A375 cells, 48 h; (A): control; (B): in the presence of 24; (C): Hoechst 33,342 staining; (D): merged (Hoechst 33,342, control); and (E): in the presence of rhodamine 123.

[9] = Homo sapiens, HT-29, 72 h of treatment
[10] = Mus musculus, NIH3T3, 72 h of treatment
[11] = Homo sapiens, MCF7, 72 h of treatment

Compound	melting point [°C]	EC50 [5] [µM]	EC50 [1, 9] [µM]	EC50 [2, 10] [µM]	EC50 ([3]; Homo sapiens, A2780) [µM]	EC50 [4, 11] [µM]	EC50 ([6]; Homo sapiens, A-375, 72 h) [µM]	EC50 ([7]; Homo sapiens, HeLa) [µM]	EC50 ([1]; 72 h of treatment) [µM]	EC50 ([2]; 72 h of treatment) [µM]	EC50 [3] [µM]	EC50 [7] [µM]	EC50 ([4]; 72 h of treatment) [µM]	EC50 [6] [µM]	mode of action / localization within the cells [8]	times more cytotoxic than parent madecassic acid ([3]; A2780 ovarian cancer cells)	times more cytotoxic than parent madecassic acid [5]
(3β,4α) 3-Hydroxy-23-oxoolean-12-en-28-oic Acid [Compound 1]									> 30	16.7 ± 2.8	13 ± 1.6	25 ± 4.1	18.5 ± 2.2	17.3 ± 1.6			
CC1(C)CC[C@]2(C(=O)O)CC[C@]3(C)C(=CC[C@@H]4[C@@]5(C)CC[C@H](O)[C@@](C)(CO)[C@@H]5CC[C@]43C)[C@@H]2C1 [Compound 2, (3β,4α) 3,23-Dihydroxyolean-12-en-28-oic Acid]			> 30	> 30	19.6 ± 1.6	25.7 ± 1.9	26.3 ± 1.8	> 30									
CC(=O)O[C@H]1CC[C@]2(C)[C@H]3CC=C4[C@@H]5CC(C)(C)CC[C@]5(C(=O)O)CC[C@@]4(C)[C@]3(C)CC[C@H]2[C@]1(C)C=O [Compound 4, (3β,4α) 3-(Acetyloxy)-23-oxoolean-12-en-28-oic Acid]			> 30			24.6 ± 4.7	> 30	> 30									
CCN(CC)c1ccc2c(-c3ccccc3C(=O)N3CCCN(C(=O)[C@]45CC[C@@H](C)[C@H](C)[C@H]4C4=CC[C@@H]6[C@@]7(C)C[C@@H](OC(C)=O)[C@H](OC(C)=O)[C@@](C)(COC(C)=O)[C@@H]7[C@H](O)C[C@@]6(C)[C@]4(C)CC5)CC3)c3ccc(=[N+](CC)CC)cc-3oc2c1 [Compound 24, N-{6-Diethylamino-9-[2-({4[ (2α,3β,4α,6β)-2,3,23-tris(acetyloxy)-6-hydroxy-28-oxours-12-en-28-yl)-1,4-diazepan-1-yl}carbonyl]phenyl]-3H-xanthen-3-ylidene)-N-ethylethanaminium Chloride]			0.0127 ± 0.0038	0.101 ± 0.0231	0.0029 ± 0.0005	0.0162 ± 0.0045	0.0095 ± 0.0015	0.0526 ± 0.0151							acts as a mitocan	more than 10,000 times	~10,000 times

Now from value to compound, other results behind:

melting point [°C]	EC50 [5] [µM]	Compound	EC50 [1, 9] [µM]	EC50 [2, 10] [µM]	EC50 ([3]; Homo sapiens, A2780) [µM]	EC50 [4, 11] [µM]	EC50 ([6]; Homo sapiens, A-375, 72 h) [µM]	EC50 ([7]; Homo sapiens, HeLa) [µM]	EC50 ([1]; 72 h of treatment) [µM]	EC50 ([2]; 72 h of treatment) [µM]	EC50 [3] [µM]	EC50 [7] [µM]	EC50 ([4]; 72 h of treatment) [µM]	EC50 [6] [µM]	mode of action / localization within the cells [8]	times more cytotoxic than parent madecassic acid ([3]; A2780 ovarian cancer cells)	times more cytotoxic than parent madecassic acid [5]
135 to 139	≥ 0.015	CC(=O)OC[C@@]1(C)[C@@H]2[C@H](O)C[C@]3(C)[C@H](CC=C4[C@@H]5[C@@H](C)[C@H](C)CC[C@]5(C(=O)Nc5ccccc5)CC[C@]43C)[C@@]2(C)C[C@@H](OC(C)=O)[C@@H]1OC(C)=O [Compound 16, (2α,3β,4α,6β) 2,3,23-Tris(acetyloxy)-N-(phenyl)-6-hydroxyurs-12-en-28-amide]	3.7 ± 0.4	21.1 ± 1.1	2.2 ± 0.1	4.5 ± 0.9	1.3 ± 0.1										
185 to 189		CC(=O)OC[C@@]1(C)[C@@H]2CC[C@]3(C)[C@H](CC=C4[C@@H]5CC(C)(C)CC[C@]5(C(=O)O)CC[C@]43C)[C@@]2(C)CC[C@@H]1OC(C)=O [Compound 5, (3β,4α) 3,23-Bis(acetyloxy)olean-12-en-28-oic Acid]	19 ± 0.6	9.6 ± 0.6	11.9 ± 0.5	9.8 ± 1	17.1 ± 1.1	12.4 ± 0.7									
	≥ 0.015	CC(=O)OC[C@@]1(C)[C@@H]2[C@H](O)C[C@]3(C)[C@H](CC=C4[C@@H]5[C@@H](C)[C@H](C)CC[C@]5(C(=O)O)CC[C@]43C)[C@@]2(C)C[C@@H](OC(C)=O)[C@@H]1OC(C)=O [Compound 6, (2α,3β,4α,6β) 2,3,23-Tris(acetyloxy)-6-hydroxyurs-12-en-28-oic Acid]	14.5 ± 1.1	7.6 ± 0.8	8.1 ± 0.7	7.1 ± 0.6	3.5 ± 0.5										
90 to 95	≥ 0.015	CC(=O)OC[C@@]1(C)[C@@H]2[C@H](O)C[C@]3(C)[C@H](CC=C4[C@@H]5[C@@H](C)[C@H](C)CC[C@]5(C(=O)NCc5ccccc5)CC[C@]43C)[C@@]2(C)C[C@@H](OC(C)=O)[C@@H]1OC(C)=O [Compound 15, (2α,3β,4α,6β) 2,3,23-Tris(acetyloxy)-N-(benzyl)-6-hydroxyurs-12-en-28-amide]	2.3 ± 0.2	17.9 ± 2.1	1.4 ± 0.1	2.7 ± 0.4	1 ± 0.1										
	≥ 0.015	C[C@H]1[C@H](C)CC[C@]2(C(=O)O)CC[C@]3(C)C(=CC[C@@H]4[C@@]5(C)C[C@@H](O)[C@H](O)[C@@](C)(CO)[C@@H]5[C@H](O)C[C@]43C)[C@H]12 [Compound 3, Madecassic Acid]	> 30	> 30	> 30	> 30	> 30										
